Assay results from patent US8912121B2, “Herbicidal compositions comprising 4-amino-3-chloro-5-fluoro-6-(4-chloro-2-fluoro-3-methoxyphenyl)pyridine-2-carboxylic acid or a derivative thereof and certain PS II inhibitors” (Dow Agrosciences LLC, priority 2012, dated 2014).

Tests used:
[1] = test system: FIMMI (Fimbristylis miliacea, globe fringerush); assay: In-water applied mixtures, transplanted paddy rice, greenhouse; type: in vivo, Fimbristylis miliacea (L.) Vahl; settings: 19 DAA
Experimental: (§1) Weed seeds or nutlets of the desired test plant species were planted in puddled soil (mud) prepared by mixing a shredded, non-sterilized mineral soil (50.5 percent silt, 25.5 percent clay, and 24 percent sand, with a pH of about 7.6 and an organic matter content of about 2.9 percent) and water at a 1:1 volumetric ratio. The prepared mud was dispensed in 365 mL aliquots into 16-ounce (oz.) non-perforated plastic pots with a surface area of 86.59 square centimeters (cm^2) leaving a headspace of 3 centimeters (cm) in each pot Mud was allowed to dry overnight prior to planting or transplanting. Rice seeds were planted in Sun Gro MetroMix® 306 planting mixture, which typically has a pH of 6.0 to 6.8 and an organic matter content of about 30 percent, in plastic plug trays. Seedlings at the second or third leaf stage of growth were transplanted into 840 mL of mud contained in 32-oz. non-perforated plastic pots with a surface area of 86.59 cm^2 4 days prior to herbicide application. The paddy was created by filling the headspace of the pots with 2.5 to 3 cm of water. When required to ensure good germination and healthy plants, a fungicide treatment and/or other chemical or physical treatment was applied. The plants were grown for 4-22 days in a greenhouse with an approximate 14 h photoperiod which was maintained at about 29° C during the day and 26° C. during the night. Nutrients were added as Osmocote® (19:6:12, N:P:K+ minor nutrients) at 2 g per 16-oz. pot and 4 g per 32-oz. pot. Water was added on a regular basis to maintain the paddy flood, and supplemental lighting was provided with overhead metal halide 1000-Watt lamps as necessary. The plants were employed for testing when they reached the first through fourth true leaf stage.
(§2) Treatments consisted of the acid or esters of 4-amino-3-chloro-5-fluoro-6-(4-chloro-2-fluoro-3-methoxy-phenyl)pyridine-2-carboxylic acid (compound A) each formulated as an SC (suspension concentrate) and various herbicidal components alone and in combination. Forms of compound A were applied on an acid equivalent basis.
(§3) Other herbicidal components were applied on an active ingredient basis and included photosystem II (PSII)-inhibits propanil formulated as […] bentazon-sodium formulated as Basagran®, and simetryne (technical grade material).
(§4) Treatment requirements for each compound or herbicidal component were calculated based upon the rates being tested, the concentration of active ingredient or acid equivalent in the formulation, an application volume of 2 mL per component per pot, and an application area of 86.59 cm^2 per pot.
(§5) For formulated compounds, a measured amount was placed in an individual 100 or 200 mL glass vial and was dissolved in a volume of 1.25% (v/v) Agri-Dex® crop oil concentrate to obtain application solutions.
For technical grade compounds, a weighed amount was placed in an individual 100 to 200 mL glass vial and was dissolved in a volume of acetone to obtain concentrated stock solutions. […]
(§6) The treated plants and control plants were placed in a greenhouse as described above and water was added as needed to maintain a paddy flood. After approximately 3 weeks the condition of the test plants as compared with that of the untreated plants was determined visually and scored on a scale of 0 to 100 percent where 0 corresponds to no injury or growth inhibition and 100 corresponds to complete kill. […]

[2] = test system: GALAP (Galium aparine, catchweed bedstraw); assay: Postemergence herbicidal activity of mixtures in cereal crops, greenhouse; type: in vivo, Galium aparine L.
Experimental: Seeds of the desired test plant species were planted in Sun Gro MetroMix® 306 planting mixture, which typically has a pH of 6.0 to 6.8 and an organic matter content of about 30 percent, in plastic pots with a surface area of 103.2 square centimeters (cm^2). When required to ensure good germination and healthy plants, a fungicide treatment and/or other chemical or physical treatment was applied. The plants were grown for 7-36 days in a greenhouse with an approximate 14 hour photoperiod which was maintained at about 18° C. during the day and about 17° C. during the night. Nutrients and water were added on a regular basis and supplemental lighting was provided with overhead metal halide 1000-Watt lamps as necessary. The plants were employed for testing when they reached the second or third true leaf stage.
Treatments consisted of the benzyl ester of 4-amino-3-chloro-5-fluoro-6-(4-chloro-2-fluoro-3-methoxy-phenyl)pyridine-2-carboxylic acid (Compound A), formulated as an SC, a second cereal herbicide alone and then both in combination.
Other herbicidal components were applied on an active ingredient basis and included PSII-inhibiting herbicides.
Measured aliquots of benzyl ester of 4-amino-3-chloro-5-fluoro-6-(4-chloro-2-fluoro-3-methoxy-phenyl)pyridine-2-carboxylic acid (Compound A) were placed in 25 milliliter (mL) glass vials and diluted in a volume of 1.25% (v/v) Agri-Dex® crop oil concentrate to obtain stock solutions. Compound requirements are based upon a 12 mL application volume at a rate of 187 liters per hectare (L/ha). Spray solutions of the second cereal herbicide and experimental compound mixtures were prepared by adding the stock solutions to the appropriate amount of dilution solution to form 12 mL spray solution with active ingredients in two- and three-way combinations. Formulated compounds were applied to the plant material with an overhead Mandel track sprayer equipped with an 8002E nozzle calibrated to deliver 187 L/ha over an application area of 0.503 square meters (m^2) at a spray height of 18 inches (46 cm) above average plant canopy. Control plants were sprayed in the same manner with the solvent blank.
The treated plants and control plants were placed in a greenhouse as described above and watered by sub-irrigation to prevent wash-off of the test compounds. After 20-22 days, the condition of the test plants as compared with that of the control plants was determined visually and scored on a scale of 0 to 100 percent where 0 corresponds to no injury and 100 corresponds to complete kill.
Colby's equation was used to determine the herbicidal effects expected from the mixtures (Colby, S. R. 1967. Calculation of the synergistic and antagonistic response of herbicide combinations. Weeds 15:20-22).
The following equation was used to calculate the expected activity of mixtures containing two active ingredients, A and B: Expected=A+B−(A×B/100)

[3] = test system: CYPRO (Cyperus rotundus, purple nutsedge); assay: In-water applied mixtures, transplanted paddy rice, greenhouse; type: in vivo, Cyperus rotundus L.; settings: 19 DAA
Experimental: as §1, §2, §3, §4, §5
For technical grade compounds, a weighed amount was placed in an individual 100 to 200 mL glass vial and was dissolved in a volume of acetone to obtain concentrated stock solutions. […] The concentrated stock solutions obtained were diluted with an equivalent volume of an aqueous mixture containing 2.5% (v/v) crop oil concentrate so that the final application solutions contained 1.25% (v/v) crop oil concentrate.
Applications were made by injecting with a pipetter appropriate amounts of the application solutions, individually and sequentially, into the aqueous layer of the paddy. Control plants were treated in the same manner with the solvent blank. Applications were made so that all treated plant material received the same concentrations of acetone and crop oil concentrate.
as §6

[4] = test system: ECHCG (Echinochloa crusgalli, barnyardgrass); assay: as above; type: in vivo, Echinochloa crusgalli (L.) Beauv.; settings: 21 DAA
Experimental: as §1, with “stage. […]” for “stage.”
as §4
For formulated compounds, a measured amount was placed in an individual 100 or 200 mL glass vial and was dissolved in a volume of 1.25% (v/v) Agri-Dex® crop oil concentrate to obtain application solutions. […]
as §6

COc1c(Cl)ccc(-c2nc(C(=O)OCc3ccccc3)c(Cl)c(N)c2F)c1F [Compound A Benzyl Ester, benzyl ester of 4-amino-3-chloro-5-fluoro-6-(4-chloro-2-fluoro-3-methoxy-phenyl)pyridine-2-carboxylic acid]
Visual Weed Control (%) Obs ([1]; 8 g ae/ha): 0% | Visual Weed Control (%) Obs ([1]; 16 g ae/ha): 0% | Visual Weed Control (%) Obs ([1]; 32 g ae/ha): 85% | Visual Weed Control (%) - 21 DAA GALAP Obs ([2]; Compound A Benzyl Ester 5 g ai/ha): 66% | Visual Weed Control (%) - 21 DAA GALAP Obs ([2]; Compound A Benzyl Ester 10 g ai/ha): 77% | Visual Weed Control (%) Obs ([3]; 8 g ae/ha): 50% | Visual Weed Control (%) Obs ([3]; 16 g ae/ha): 85% | Visual Weed Control (%) Obs ([3]; 32 g ae/ha): 90%

COc1c(Cl)ccc(-c2nc(C(=O)O)c(Cl)c(N)c2F)c1F [Compound A Acid, 4-amino-3-chloro-6-(4-chloro-2-fluoro-3-methoxyphenyl)-5-fluoropyridine-2-carboxylic acid]
Visual Weed Control (%) Obs ([4]; 8.75 g ae/ha): 0% | Visual Weed Control (%) Obs ([4]; 17.5 g ae/ha): 0%
